Results: the supplement of paper PMC8671470

Legend:
Details in all cases: 72 h
NOMO-1 [1] = tested on: NOMO-1
Outline: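 Each of fifteen myeloid leukaemia cell lines was seeded in RPMI 1640 at a density titrated to its linear growth range. The cells were incubated for 72 h at 37 °C and 5% CO2 with compounds at five tenfold doses from 1 to 10,000 nM, in duplicate. After ATP luminescence was normalised to vehicle and to a positive control at 10 µM, four-parameter log-logistic curves were fitted. These curves gave the IC50.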

HL-60 [2] = experiment: cell viability (% survival relative to DMSO control); higher = less cytotoxic
Outline: (§1)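 Four-parameter log-logistic fits in drc and PharmacoGx supplied area under the curve where it is given. Underlying viability came from CellTiter-Glo, normalised to DMSO and proteasome-inhibitor wells, with the proteasome inhibitor at 10 μM. HL-60 cells in RPMI 1640 plus 10% FBS had been rescreened against the full library at five tenfold concentrations of 1–10,000 nM, in duplicate on 384-well plates, with DMSO or 100 nM of one of three metabolic inhibitors, for 72 h at 37 °C, 5% CO2.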

BV-173 = experiment: cell viability (% survival relative to DMSO control, bortezomib = 0%); higher = less cytotoxic
Outline: (§2)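 Seeding density for each of the 10 AML and 5 CML cell lines was titrated to the linear growth range. Cells went into 384-well plates pre-printed in duplicate with compounds at 1, 10, 100, 1000 or 10000 nM and were held for 72 h at 37 °C with 5% CO2. CellTiter-Glo luminescence then provided the readout. Percent survival is expressed relative to vehicle at 100% and a 10 µM positive control at 0%, averaged over duplicates.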

HEL = experiment: as above
Outline: as §2

HL-60 [3] = experiment: as above
Outline: as §2

K-562 = experiment: as above
Outline: as §2

KCL-22 = experiment: as above
Outline: as §2

KG-1 = experiment: as above
Outline: as §2

KU-812 = experiment: as above
Outline: as §2

LAMA-84 = experiment: as above
Outline: as §2

ML-2 = experiment: as above
Outline: as §2

MOLM-13 = experiment: as above
Outline: as §2

MV4-11 = experiment: as above
Outline: as §2

Mono-Mac-6 = experiment: as above
Outline: as §2

NOMO-1 [4] = experiment: as above
Outline: as §2

SHI-1 = experiment: as above
Outline: as §2

THP-1 = experiment: as above
Outline: as §2

HL-60 [5] = experiment: area under dose-response curve (viability, 1 nM-10 uM) (fraction (0-1)); higher = more sensitive
Outline: as §1

C[C@H]1O[C@H](O[C@H]2[C@H](O)[C@@H](O)[C@@H](O[C@H]3[C@H](O)[C@@H](O)C(O)O[C@@H]3CO)O[C@@H]2CO)[C@H](O)[C@@H](O)[C@@H]1N[C@H]1C=C(CO)[C@@H](O)[C@H](O)[C@H]1O (mixture of isomers) [Acarbose]
Details | IC50 (cell viability) [µM]
NOMO-1 [1] | > 10

cell viability [%], HL-60 [2]
Details | 0.001 µM | 0.01 µM | 0.1 µM | 1 µM | 10 µM
co-treatment: AZD3965 100 nM | 112.2 | 96.77 | 99 | 99.3 | 88.1
co-treatment: DMSO vehicle | 100.2 | 98.3 | 102 | 104 | 97.771
co-treatment: GSK2194069 100 nM | 108.6 | 98.7 | 97.7 | 92.59 | 97.3
co-treatment: pictilisib 100 nM | 105 | 104 | 101 | 96.9 | 102.6

Details | area under dose-response curve, co-treatment: AZD3965 100 nM | area under dose-response curve, co-treatment: DMSO vehicle | area under dose-response curve, co-treatment: GSK2194069 100 nM | area under dose-response curve, co-treatment: pictilisib 100 nM | cell viability, 1 nM [%] | cell viability, 10 nM [%] | cell viability, 100 nM [%] | cell viability, 1000 nM [%] | cell viability, 10000 nM [%]
BV-173 | – | – | – | – | 95.6 | 99.7 | 110 | 103 | 83.4
HEL | – | – | – | – | 117 | 111 | 114 | 88.8 | 98.8
HL-60 [3] | – | – | – | – | 125 | 111 | 122 | 99.1 | 106
HL-60 [5] | < 0.0301 | < 0.0301 | < 0.0301 | < 0.0301 | – | – | – | – | –
K-562 | – | – | – | – | 111 | 131 | 88.1 | 94.9 | 98.8
KCL-22 | – | – | – | – | 116 | 117 | 112 | 86.5 | 97.2
KG-1 | – | – | – | – | 99.1 | 107 | 93.2 | 105 | 95.7
KU-812 | – | – | – | – | 91.8 | 94.5 | 107 | 114 | 93.9
LAMA-84 | – | – | – | – | 93.4 | 84.7 | 108 | 92.7 | 93.4
ML-2 | – | – | – | – | 104 | 102 | 103 | 94.8 | 95.8
MOLM-13 | – | – | – | – | 133 | 86.7 | 106 | 95.8 | 94.9
MV4-11 | – | – | – | – | 108 | 73 | 111 | 89.1 | 94.9
Mono-Mac-6 | – | – | – | – | 101 | 95.6 | 102 | 111 | 87
NOMO-1 [4] | – | – | – | – | 98.1 | 97.7 | 103 | 96.1 | 88.4
SHI-1 | – | – | – | – | 116 | 120 | 99.8 | 104 | 97.7
THP-1 | – | – | – | – | 87.6 | 107 | 96.9 | 95.1 | 97.1
